Data: ChEMBL document CHEMBL1146232, “Discovery of N-{(1S,2S)-2-(3-cyanophenyl)- 3-[4-(2-[18F]fluoroethoxy)phenyl]-1-methylpropyl}- 2-methyl-2-[(5-methylpyridin-2-yl)oxy]propanamide, a cannabinoid-1 receptor positron emission tomography tracer suitable for clinical use” (J Med Chem, 2007)

Columns and labels:
[1] = Distribution coefficient, log D at pH 7.3; format: physicochemical; settings: octanol/water
[2] = biological target: Cannabinoid receptor 1 (Homo sapiens, UniProt P21554); assay: Displacement of [3H]CP-55940 from human recombinant CB1R expressed in CHO cells; format: cell-based
[3] = Clearance in Sprague-Dawley rat at 1 mg/kg, iv; format: ADME, organism-based; set-up: dose 1 mg/kg, route intravenous; settings: in vivo
[4] = Ratio of drug level in brain to plasma in Sprague-Dawley rat at 1 mg/kg, iv after 15 mins; format: ADME, organism-based; set-up: dose 1 mg/kg, route intravenous; settings: brain and plasma
[5] = Half life in Sprague-Dawley rat at 1 mg/kg, iv; format: ADME, organism-based; set-up: dose 1 mg/kg, route intravenous; settings: in vivo
[6] = biological target: Cannabinoid receptor 2 (Homo sapiens, UniProt P34972); assay: Agonist activity at human CB2R; format: functional
Cannabinoid receptor 2, sequence (P34972 whole entry): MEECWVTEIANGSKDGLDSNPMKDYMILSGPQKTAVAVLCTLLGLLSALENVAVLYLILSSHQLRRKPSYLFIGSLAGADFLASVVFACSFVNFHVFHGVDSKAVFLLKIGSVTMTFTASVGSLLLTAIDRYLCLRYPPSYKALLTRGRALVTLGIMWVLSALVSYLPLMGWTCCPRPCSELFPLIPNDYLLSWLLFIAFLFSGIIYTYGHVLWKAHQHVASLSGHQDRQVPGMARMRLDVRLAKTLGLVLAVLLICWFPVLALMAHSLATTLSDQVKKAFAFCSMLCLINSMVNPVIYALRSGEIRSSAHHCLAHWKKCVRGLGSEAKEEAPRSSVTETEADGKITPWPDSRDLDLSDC

Cannabinoid receptor 1, sequence (P21554 whole entry): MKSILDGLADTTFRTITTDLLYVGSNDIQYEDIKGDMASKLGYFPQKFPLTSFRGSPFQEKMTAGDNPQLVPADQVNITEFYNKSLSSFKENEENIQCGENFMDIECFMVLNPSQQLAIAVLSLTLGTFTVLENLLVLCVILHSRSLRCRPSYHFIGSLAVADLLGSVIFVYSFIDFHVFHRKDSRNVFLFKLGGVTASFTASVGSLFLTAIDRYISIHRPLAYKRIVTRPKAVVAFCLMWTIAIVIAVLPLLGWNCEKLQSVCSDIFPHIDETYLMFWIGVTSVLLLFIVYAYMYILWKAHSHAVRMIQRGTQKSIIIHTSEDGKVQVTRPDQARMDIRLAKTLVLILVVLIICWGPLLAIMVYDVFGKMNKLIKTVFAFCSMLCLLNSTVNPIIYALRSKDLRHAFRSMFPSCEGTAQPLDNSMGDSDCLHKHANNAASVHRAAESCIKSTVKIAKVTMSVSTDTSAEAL

**Q.** With C[C@H](NC(=O)C(C)(C)Oc1ccc(C(F)(F)F)cn1)[C@@H](Cc1ccc(OCCF)cc1)c1cccc(C#N)c1 as the compound, how does the logD [1] read?
**A.** 4.4

**Q.** And the IC50 [2]?
**A.** 0.9 nM

**Q.** For C[C@H](NC(=O)C(C)(C)Oc1ccc(Cl)cn1)[C@@H](Cc1ccc(OCCF)cc1)c1cccc(C#N)c1, which logD [1] is on record?
**A.** 4.2

**Q.** And the IC50 [2]?
**A.** 0.8 nM

**Q.** What does the source list for Cc1ccnc(OC(C)(C)C(=O)N[C@@H](C)[C@@H](Cc2ccc(OCCF)cc2)c2cccc(C#N)c2)c1?
**A.** logD [1]: 4.1; IC50 [2]: 0.47 nM

**Q.** With Cc1ccc(OC(C)(C)C(=O)N[C@@H](C)[C@@H](Cc2ccc(OCCF)cc2)c2cccc(C#N)c2)nc1 as the compound, how does the clearance [3] read?
**A.** 81 mL/min/kg

**Q.** And the Kp at 0.25 h [4]?
**A.** 0.5

**Q.** What about the half-life [5] of the same compound?
**A.** 1.4 h

**Q.** What about the IC50 [6] of the same compound?
**A.** 44 nM

**Q.** What about the logD [1] of the same compound?
**A.** 4

**Q.** And the IC50 [2]?
**A.** 0.7 nM

**Q.** Which logD [1] does the source give for C[C@H](NC(=O)C(C)(C)Oc1cc(C(F)(F)F)ncn1)[C@@H](Cc1ccc(OCCF)cc1)c1cccc(C#N)c1 here?
**A.** 3.9

**Q.** What about the IC50 [2] of the same compound?
**A.** 1.8 nM

**Q.** Which results are given for Cc1ccc(OC(C)(C)C(=O)N[C@@H](C)[C@@H](Cc2ccc(OCC[18F])cc2)c2cccc(C#N)c2)nc1?
**A.** logD [1]: 4; IC50 [2]: 0.73 nM

**Q.** With COc1ccc(C[C@@H](c2cc(F)cc(C#N)c2)[C@H](C)NC(=O)C(C)(C)Oc2ccc(C(F)(F)F)cn2)cc1 as the compound, how does the logD [1] read?
**A.** 4.8

**Q.** And the IC50 [2]?
**A.** 0.9 nM

**Q.** With C[C@H](NC(=O)C(C)(C)Oc1ccc(C(F)(F)F)cn1)[C@@H](Cc1ccc(OCF)cc1)c1cc(F)cc(C#N)c1 as the compound, how does the logD [1] read?
**A.** 4.7

**Q.** What about the IC50 [2] of the same compound?
**A.** 2 nM

**Q.** For C[C@H](NC(=O)C(C)(C)Oc1ccccn1)[C@@H](Cc1ccc(OCCF)cc1)c1cccc(C#N)c1, which logD [1] is on record?
**A.** 3.7

**Q.** What about the IC50 [2] of the same compound?
**A.** 1.3 nM

**Q.** Which logD [1] does the source give for C[C@H](NC(=O)C(C)(C)Oc1ccc(C(F)(F)F)cn1)[C@@H](Cc1ccc(OCCF)cc1)c1cc(F)cc(C#N)c1 here?
**A.** 4.6

**Q.** And the IC50 [2]?
**A.** 0.9 nM

**Q.** For C[C@H](NC(=O)C(C)(C)Oc1cc(C(F)(F)F)ccn1)[C@@H](Cc1ccc(OCCF)cc1)c1cccc(C#N)c1, which logD [1] is on record?
**A.** 4.6

**Q.** What about the IC50 [2] of the same compound?
**A.** 0.77 nM

**Q.** For C[C@H](NC(=O)C(C)(C)Oc1ccc(C#N)cn1)[C@@H](Cc1ccc(OCCF)cc1)c1cccc(C#N)c1, which logD [1] is on record?
**A.** 3.3

**Q.** What about the IC50 [2] of the same compound?
**A.** 1.8 nM

**Q.** With C[C@H](NC(=O)C(C)(C)Oc1ccc(C(F)(F)F)cn1)[C@@H](Cc1ccc(Cl)cc1)c1cccc(C#N)c1 [TARANABANT] as the compound, how does the logD [1] read?
**A.** 5.2
